Literature values, collected in patent US20250114486A1, “MARKED FATTY ACID DERIVATIVE, PRECURSOR COMPOUND THEREOF, AND USE THEREOF IN CONTRAST AGENT” (BEIJING NORMAL UNIVERSITY, priority 2022, published 2025).
Like-named read-outs stand apart in the source and are kept apart here.

Conditions: female SD rats, cited from earlier work
[1] = 30 min after injection, reference 3
[2] = 30 min post-injection, reference 2
[3] = 60 min after injection, reference 2
[4] = 60 min after injection, reference 3
[5] = 60 min post-injection, reference 1
[6] = 60 min post-injection, reference 2
[7] = 120 min after injection, reference 3
[8] = 120 min post-injection, reference 1

[99Tc].[C-]#[N+]CC(C)(C)OC.[C-]#[N+]CC(C)(C)OC.[C-]#[N+]CC(C)(C)OC.[C-]#[N+]CC(C)(C)OC.[C-]#[N+]CC(C)(C)OC.[C-]#[N+]CC(C)(C)OC [^99mTc-MIBI]
absolute myocardial uptake value (10 min after injection, reference 2): 3.26±0.18 % ID/g
absolute myocardial uptake value (10 min post-injection, reference 1): 3.70 % Dose/g
absolute myocardial uptake value (20 min after injection, reference 2): 3.07 0.21 % ID/g
absolute myocardial uptake value (30 min after injection, reference 2): 3.13±0.12 % ID/g
Heart-to-Blood ratio [1]: 114.6±34.70
absolute myocardial uptake value [1]: 3.16±0.56 % ID/g
absolute myocardial uptake value (30 min post-injection, reference 1): 3.16 % Dose/g
Heart-to-Blood ratio [2]: 104.30
Heart-to-Lungs ratio [2]: 4.66±0.24
Heart-to-Lungs ratio (30 min post-injection, reference 3): 3.57±0.72
Heart-to-Liver ratio [3]: 2.65±0.22
absolute myocardial uptake value [3]: 3.29±0.12 % ID/g
Heart-to-Blood ratio [4]: 137.80±35.00
Heart-to-Liver ratio [4]: 4.25±0.84
absolute myocardial uptake value [4]: 3.14±0.42 % ID/g
Heart-to-Liver ratio [5]: 2.04±0.17
Heart-to-Lungs ratio [5]: 6.77±0.55
absolute myocardial uptake value [5]: 3.04 % Dose/g
Heart-to-Blood ratio [6]: 164.50
Heart-to-Lungs ratio [6]: 7.32±0.28
Heart-to-Lungs ratio (60 min post-injection, reference 3): 6.41±1.25
Heart-to-Blood ratio [7]: 209.00±12.40
Heart-to-Liver ratio [7]: 4.52±1.57
absolute myocardial uptake value [7]: 2.83±0.25 % ID/g
Heart-to-Liver ratio [8]: 2.96±0.34
Heart-to-Lungs ratio [8]: 6.48±0.51
Heart-to-Lungs ratio (120 min post-injection, reference 3): 7.97±1.89
